Target: T1, Tyrosine-protein phosphatase non-receptor type 11 (Homo sapiens, UniProt Q06124)
T1 sequence (Q06124 whole entry): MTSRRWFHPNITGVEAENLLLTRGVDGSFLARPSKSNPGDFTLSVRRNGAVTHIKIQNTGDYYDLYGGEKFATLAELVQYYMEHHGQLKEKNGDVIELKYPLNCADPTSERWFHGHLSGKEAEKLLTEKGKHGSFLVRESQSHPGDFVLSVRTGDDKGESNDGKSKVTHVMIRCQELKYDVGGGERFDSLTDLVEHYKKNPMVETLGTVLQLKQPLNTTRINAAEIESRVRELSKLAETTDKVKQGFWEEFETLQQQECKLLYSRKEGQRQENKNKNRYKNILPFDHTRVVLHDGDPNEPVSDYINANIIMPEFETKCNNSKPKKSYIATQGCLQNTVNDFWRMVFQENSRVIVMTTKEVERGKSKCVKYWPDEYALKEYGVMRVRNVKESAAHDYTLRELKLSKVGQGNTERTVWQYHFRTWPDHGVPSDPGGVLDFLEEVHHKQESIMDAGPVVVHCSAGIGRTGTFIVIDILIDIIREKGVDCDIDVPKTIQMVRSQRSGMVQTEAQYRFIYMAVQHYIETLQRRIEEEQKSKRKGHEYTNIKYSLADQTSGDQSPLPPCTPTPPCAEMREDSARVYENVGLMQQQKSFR
Assay: SHP2 Allosteric Inhibition Assay
Protocol: The phosphatase reactions were performed at room temperature in 96-well black polystyrene plate, flat bottom, non-binding surface (Corning, Cat #3650) using a final reaction volume of 100 μL and the following assay buffer conditions: 50 mM HEPES, pH 7.2, 100 mM NaCl, 0.5 mM EDTA, 0.05% P-20, 1 mM DTT. The inhibition of SHP2 by compounds of the disclosure (concentrations varying from 0.00005-10 μM) was monitored using an assay in which 0.2 nM of SHP2 was incubated with 0.5 μM of Activating Peptide 1 (sequence: H2 N-LN(pY)IDLDLV(dPEG8)LST(pY)ASINFQK-amide) or Activating Peptide 2 (sequence: H2 N-LN(pY)AQLWHA(dPEG8)LTI(pY)ATIRRF-amide). After 30-60- minutes incubation at 25° C., the surrogate substrate DiFMUP (Invitrogen, Cat #D6567) was added to the reaction and activity was determined by a kinetic read using a microplate reader (Envision, Perkin-Elmer or Spectramax M5, Molecular Devices). The excitation and emission wavelengths were 340 nm and 450 nm, respectively. Initial rates were determined from a linear fit of the data, and the inhibitor dose response curves were analyzed using normalized IC50 regression curve fitting with control-based normalization.

Which IC50 does the source give for `Cc1nc(N2CCC3(CC2)CO[C@@H](C)[C@H]3N)c2ccnn2c1Sc1ccnc(N)c1Cl` [US11739093, Compound 3] here?
Its IC50 is 0.034 µM.
